Consider three compounds from patent publication US4870207A, “Synthesis of arphamenine A” (Zaiden Hojin Biseibutsu Kagaku Kenkyu Kai, priority 1983, dated 1989).

Experiment [1] deals with Delayed-Type Hypersensitivity (D.T.H.). Nature of the experiment: Delayed-Type Hypersensitivity (D.T.H.) technique, cell-mediated immunopotentiating activity. Type of experiment: in vivo. An excerpt:
Accordingly, they are useful as an immunopotentiating agent.

For a further experiment, the target named is T1, aminopeptidase B (Rattus norvegicus, UniProt O09175).
T1 sequence (O09175 1-650): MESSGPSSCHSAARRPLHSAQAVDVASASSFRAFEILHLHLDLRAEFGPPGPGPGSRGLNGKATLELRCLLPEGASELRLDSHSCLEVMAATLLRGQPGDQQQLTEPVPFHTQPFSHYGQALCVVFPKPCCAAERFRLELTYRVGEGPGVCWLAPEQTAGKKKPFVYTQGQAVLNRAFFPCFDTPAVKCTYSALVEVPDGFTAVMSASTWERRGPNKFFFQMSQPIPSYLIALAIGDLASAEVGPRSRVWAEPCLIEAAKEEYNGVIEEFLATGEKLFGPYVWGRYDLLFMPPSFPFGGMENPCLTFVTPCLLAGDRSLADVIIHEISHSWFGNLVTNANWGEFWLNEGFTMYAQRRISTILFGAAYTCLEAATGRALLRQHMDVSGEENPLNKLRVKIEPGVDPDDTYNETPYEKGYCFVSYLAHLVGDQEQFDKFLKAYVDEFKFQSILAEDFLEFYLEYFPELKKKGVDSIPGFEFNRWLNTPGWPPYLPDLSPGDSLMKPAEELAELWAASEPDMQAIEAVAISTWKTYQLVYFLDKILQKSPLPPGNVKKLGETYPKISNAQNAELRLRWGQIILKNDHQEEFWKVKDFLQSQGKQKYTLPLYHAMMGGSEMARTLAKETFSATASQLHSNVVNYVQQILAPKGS
Briefly: Aminopeptidase B-inhibitory activity. Conditions: modification of the method of Hoppusu. It counts as biochemical. Here is the method:
The aminopeptidase B-inhibitory activities (IC50) described above were determined by a modification of the method of Hoppusu disclosed in the specification of U.S. Pat. No. 4,595,698.

For experiment [2] the following is noted: background statement, see U.S. Pat. No. 4,595,698; cited from earlier work.
The conditions of experiment [3]: background statement, see U.S. Pat. No. 4,595,698; cited from earlier work. This is another data set of the same source.

Each structure is given as a SMILES string. Where two headings read alike, the source gives them in different places.

For `N=C(N)NCCC[C@H](N)C(=O)C[C@H](Cc1ccccc1)C(=O)O` [Substance (I"), epi-arphamenine A], in experiment [1], the cell-mediated immunopotentiating activity entry is “exhibit a cell-mediated immunopotentiating activity”.
By IC50 is commonly meant the point on the concentration scale where inhibition reaches its midpoint. For `N=C(N)NCCC[C@H](N)C(=O)C[C@@H](Cc1ccccc1)C(=O)O` [Substance (I'), arphamenine A], at aminopeptidase B, the IC50 is 21.8 nM. In addition, the cell-mediated immunopotentiating activity entry in experiment [1] (listed as (Ia)) is “exhibit a cell-mediated immunopotentiating activity”.
With `N=C(N)NCCC[C@H](N)C(=O)C[C@@H](Cc1ccccc1)C(=O)O` [naturally occuring arphamenine A, arphamenine A], the IC50 against aminopeptidase B was 15.6 nM. Also, the immunopotentiating activity result in experiment [2] is “shows an immunopotentiating activity”. Besides, the analgesic activity result in experiment [3] was “an analgesic activity”.
